Assays:
[1] = biological target: Dual specificity protein kinase CLK3 (Homo sapiens, UniProt P49761); assay: Inhibition of recombinant CLK3 (unknown origin) using Ser/Thr 18 peptide as substrate incubated for 1 hr in presence of ATP by FRET assay
[2] = Induction of chondrogenesis in human MSC assessed as maximum activity at 300 nM incubated for 6 days by rhodamine B and Nile red staining based imaging analysis relative to control; type: functional; conditions: BMMSC, 144 h, time 6 day
[3] = Effect on Wnt signaling pathway in human SW480 cells harbouring TCF/LEF luciferase reporter gene and SP5-Luc reporter gene incubated for 36 to 48 hrs by luminescence assay; type: cell-based
[4] = biological target: Dual specificity tyrosine-phosphorylation-regulated kinase 1A (Homo sapiens, UniProt Q13627); assay: Inhibition of recombinant DYRK1A (unknown origin) using Ser/Thr 18 peptide as substrate incubated for 1 hr in presence of ATP by FRET assay
[5] = Induction of chondrogenesis in human MSC assessed as incubated for 6 days by rhodamine B and Nile red staining based imaging analysis; type: functional; conditions: bmmsc
[6] = Induction of chondrogenesis in human MSC assessed as maximum activity at 100 nM incubated for 6 days by rhodamine B and Nile red staining based imaging analysis relative to control; type: functional; conditions: BMMSC, 144 h, time 6 day
[7] = Inhibition of IL1-beta induced MMP3 expression levels in human chondrocytes assessed as MMP3 levels incubated for 2hrs followed by IL1-beta stimulation and measured after overnight incubation by LANCE assay relative to control; type: functional, Chondrocyte
[8] = Induction of chondrogenesis in human MSC assessed as maximum activity at 30 nM incubated for 6 days by rhodamine B and Nile red staining based imaging analysis relative to control; type: functional; conditions: BMMSC, 144 h, time 6 day
[9] = Inhibition of IL1-beta induced MMP3 expression levels in human chondrocytes assessed as MMP3 levels incubated for 2hrs followed by IL1-beta stimulation and measured after overnight incubation by LANCE assay; type: functional, cell-based; conditions: Chondrocyte
[10] = Induction of chondrogenesis in human MSC assessed as maximum activity at 10 nM incubated for 6 days by rhodamine B and Nile red staining based imaging analysis relative to control; type: functional; conditions: BMMSC, 144 h, time 6 day

Sequence of Dual specificity protein kinase CLK3 (P49761 whole entry): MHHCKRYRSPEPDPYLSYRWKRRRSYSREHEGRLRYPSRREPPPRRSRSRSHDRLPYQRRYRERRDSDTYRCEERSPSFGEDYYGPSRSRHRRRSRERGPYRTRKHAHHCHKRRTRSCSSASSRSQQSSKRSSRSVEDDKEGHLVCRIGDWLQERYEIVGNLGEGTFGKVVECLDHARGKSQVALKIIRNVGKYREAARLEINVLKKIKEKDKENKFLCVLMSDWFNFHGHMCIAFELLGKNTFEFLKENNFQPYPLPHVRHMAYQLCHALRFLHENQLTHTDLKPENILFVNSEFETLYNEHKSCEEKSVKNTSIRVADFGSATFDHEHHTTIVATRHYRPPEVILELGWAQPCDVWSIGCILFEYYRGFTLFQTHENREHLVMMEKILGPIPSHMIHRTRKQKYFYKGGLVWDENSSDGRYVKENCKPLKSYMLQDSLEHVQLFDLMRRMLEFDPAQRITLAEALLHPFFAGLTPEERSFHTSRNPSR

Row | Structure (SMILES) | EC50 [1] | Emax at 0.3 µM [2] | EC50 [3] | EC50 [4] | EC50 [5] | Emax at 0.1 µM [6] | Imax [7] | Emax at 0.03 µM [8] | EC50 [9] | Emax at 0.01 µM [10]
1 | CN(C)CCOc1cncc(-c2cc3c(-c4cc5c(-c6ccc(F)cc6)nccc5[nH]4)n[nH]c3cn2)c1 | > 10000 nM | 113% | 3000 nM | 43 nM | 900 nM |  |  |  |  | 
2 | c1cc(-c2ccnc3[nH]c(-c4n[nH]c5ccc(-c6cncnc6)cc45)cc23)ccn1 | > 10000 nM |  | > 10000 nM | 68 nM |  | 17.3% |  |  |  | 
3 | c1cncc(-c2ccc3[nH]nc(-c4nc5c(N6CCOCC6)cncc5[nH]4)c3c2)c1 |  |  | 23 nM | 2 nM |  |  | 100% | 90.4% | 13.6 nM | 
4 | CO[C@H]1CC[C@H](C(=O)Nc2cc3cc(-c4cnn(C)c4CN4CCCCC4)ccc3cn2)CC1 |  |  | 471 nM | 2 nM |  |  | 0.2% |  | 3000 nM | 
5 | CN1CCC(Nc2ccc(NC(=O)c3n[nH]c4cc(F)c(-c5cnn(C)c5)cc34)cn2)CC1 |  |  | 230 nM | 2 nM |  |  | 100% |  | 1160 nM | 
6 | O=C(Cc1ccccc1)Nc1cncc(-c2ccc3[nH]nc(-c4cc5cnccc5[nH]4)c3c2)c1 | 180 nM |  | 1760 nM | 8 nM | 10 nM |  |  |  |  | 119%
7 | Nc1cncc(-c2cc3c(-c4cc5c(-c6ccncc6)cncc5[nH]4)n[nH]c3cn2)c1 | > 10000 nM |  | > 10000 nM | 3 nM | 10 nM |  |  | 52% |  | 
8 | NC(=O)c1ccc(NC(=O)c2n[nH]c3ccc(-c4cncc(CN5CCCCC5)c4)cc23)cn1 |  |  | 13 nM | 1 nM |  |  | 100% |  | 2220 nM | 
9 | O=C(Nc1cccnc1)c1n[nH]c2ccc(-c3cncc(CN4CCS(=O)(=O)CC4)c3)cc12 |  |  | 210 nM | 2 nM |  |  | 8.6% |  | 616 nM | 
10 | CN1CCN(c2cc(C(=O)Nc3cc4cc(-c5cncs5)ccc4cn3)ccn2)CC1 |  |  |  |  |  |  | 100% | 22.3% | 423 nM | 
11 | c1cc(-c2cncc3[nH]c(-c4n[nH]c5ccc(-c6cncc(CNCC7CCCC7)c6)cc45)nc23)cs1 | > 10000 nM |  | 58 nM | 12 nM | 100 nM | 167% |  |  |  | 
12 | O=C(Nc1c[nH]nc1C(=O)Nc1ccc(N2CCCCC2)nc1)c1cncc(OC2CCNCC2)c1 |  |  | 662 nM | 10 nM |  |  | 71% |  | 3000 nM | 
13 | O=C(Nc1cncc(-c2ccc3[nH]nc(-c4nc5c(-c6ccccn6)ccnc5[nH]4)c3n2)c1)c1ccccc1 | > 10000 nM |  | > 10000 nM | > 10000 nM |  |  | 67% |  | 5.1 nM | 
14 | CN1CCN(c2ccnc3[nH]c(-c4n[nH]c5ccc(-c6cn[nH]c6)nc45)cc23)CC1 | > 10000 nM | 60.1% | > 10000 nM | 49 nM | 300 nM |  |  |  |  | 
15 | O=C(Nc1ccc(CN2CCCC2)cc1)c1n[nH]c2ccc(-c3cnn(C4CC4)c3)cc12 |  |  | 451 nM | 4 nM |  |  | 57% |  | 3000 nM | 
16 | O=C(Nc1ccc(OCCN2CCCC2)nc1)c1n[nH]cc1C#Cc1cccnc1 | > 10000 nM |  | 409 nM | 24 nM |  |  |  | 68.8% |  | 
17 | Cn1cc(-c2cnc3[nH]nc(-c4cc5cccnc5[nH]4)c3c2)cn1 | > 10000 nM | 51.7% | > 10000 nM | 8 nM | 300 nM |  |  |  |  | 
18 | Cc1ccncc1-c1ccc2[nH]nc(-c3cc4c(-c5ccncc5)ccnc4[nH]3)c2n1 | > 10000 nM | 56.5% | > 10000 nM | 66 nM | 300 nM |  |  |  |  | 
19 | COc1cncc(C(=O)Nc2c[nH]nc2C(=O)Nc2ccc3c(c2)CCNC3)c1 |  |  | 613 nM | 8 nM |  |  | 76% |  | 342 nM | 
20 | Cc1n[nH]c2ccc(-c3cncc(NCC4(F)CNC4)n3)cc12 |  |  | 780 nM | 11 nM |  |  | 100% |  | 2270 nM | 
21 | CN1CCC(n2cc(NC(=O)c3n[nH]c4ccc(-c5cnn(C)c5)cc34)cn2)CC1 |  |  | 79 nM | 1 nM |  |  | 100% |  | 818 nM | 
22 | Cn1cc(-c2ccc3cnc(NC(=O)c4ccnc(N5CC6CC5CN6)c4)cc3c2)cn1 (stereo not drawn) |  |  |  |  |  |  | 69% |  | 3000 nM | 
23 | O=C(Nc1c[nH]nc1C(=O)Nc1cccnc1)c1cccnc1 |  |  | 20.5 nM | 12 nM |  |  | 100% |  | 38.9 nM | 

Row | Structure (SMILES) | EC50 [1] | Emax at 0.3 µM [2] | EC50 [3] | EC50 [4] | EC50 [5] | Emax at 0.1 µM [6] | Imax [7] | Emax at 0.03 µM [8] | EC50 [9] | Emax at 0.01 µM [10]
24 | O=C(Nc1c[nH]nc1C(=O)Nc1ccc(N2CCCC2)nc1)c1cncc(OC2CCNCC2)c1 |  |  | 2.5 nM | 9 nM |  |  | 80% |  | 3000 nM | 
25 | CC(C)CC(=O)Nc1cncc(-c2ccc3[nH]nc(-c4nc5c(-c6cccnc6)cncc5[nH]4)c3c2)c1 |  |  | 12 nM | 12 nM | 100 nM | 198% | 100% |  | 111 nM | 
26 | c1cc(-c2ccnc3[nH]c(-c4n[nH]c5ccc(-c6cncc(OCCN7CCCC7)c6)nc45)cc23)ccn1 | > 10000 nM | 39.6% | > 10000 nM | 28 nM |  |  |  |  |  | 
27 | CN(C)c1cncc(-c2cnc3[nH]nc(-c4cc5c(-c6ccncc6)cncc5[nH]4)c3c2)c1 | > 10000 nM |  | > 10000 nM | 14 nM | 10 nM |  |  | 191% |  | 
28 | CN1CCN(c2ccnc3[nH]c(-c4n[nH]c5ccc(-c6cncc(NC(=O)c7ccccc7)c6)nc45)cc23)CC1 | 258 nM |  | 6100 nM | 29 nM | 10 nM |  |  |  |  | 61.8%
29 | O=C(Nc1c[nH]nc1C(=O)Nc1cncc(-c2cccc(F)c2)c1)c1cncc(F)c1 | > 10000 nM |  | 479 nM | 63 nM |  | 81.5% |  |  | 0.4 nM | 
30 | CC(C)N1CCC(n2cc(C(=O)Nc3cc4cc(-c5cn(C)nn5)ccc4cn3)cn2)CC1 |  |  | 32.7 nM |  |  |  | 91% |  | 492 nM | 
31 | CC(C)Nc1cncc(-c2cnc3[nH]nc(-c4cc5c(-c6ccccc6F)ccnc5[nH]4)c3c2)c1 | > 10000 nM |  | > 10000 nM | 35 nM | 10 nM |  |  |  |  | 81.6%
32 | FC1(F)CCN(Cc2cncc(-c3ccc4[nH]nc(-c5cc6cccnc6[nH]5)c4n3)c2)C1 | 370 nM |  | 104 nM | 11 nM | 100 nM |  |  | 134% |  | 
33 | Cn1ncc(-c2ccc3cnc(NC(=O)c4ccnc(N5CCOCC5)c4)cc3c2)c1CN1CCOCC1 |  |  |  |  |  |  | 70% |  | 3000 nM | 
34 | O=C(Nc1ccc(C(=O)N2CCCC2)nc1)c1n[nH]c2ccc(-c3cncc(CN4CCCCC4)c3)cc12 |  |  | 30 nM | 1 nM |  |  | 100% |  | 3000 nM | 
35 | CCCC(=O)Nc1cncc(-c2ccc3[nH]nc(-c4cc5c(-c6ccncc6)cncc5[nH]4)c3c2)c1 | 460 nM |  | > 10000 nM | 6 nM | 100 nM | 124% |  |  |  | 
36 | c1cnc2cc(-c3n[nH]c4ccc(-c5cncc(CN6CCCCC6)c5)cc34)[nH]c2c1 |  |  | 165 nM | 5 nM |  |  | 100% |  | 319 nM | 
37 | CC(C)(C)C(=O)Nc1cncc(-c2ccc3[nH]nc(-c4nc5c(-c6cccnc6)cncc5[nH]4)c3c2)c1 |  |  | 85.4 nM | 5 nM |  |  | 100% |  | 1100 nM | 
38 | CN1CCC(Oc2ccc3[nH]c(-c4n[nH]c5ccc(-c6cnn(C)c6)cc45)nc3c2)CC1 |  |  | 18.3 nM | 2 nM |  |  | 100% |  | 170 nM | 
39 | O=C(Nc1c[nH]nc1-c1nc2c(-c3cccc(F)c3)cccc2[nH]1)c1cccnc1 |  |  | 2.9 nM | 4 nM |  |  | 100% |  | 76.5 nM | 
40 | Cn1ncc(-c2ccc3cnc(NC(=O)C4CCN(C(=O)c5ccccc5)CC4)cc3c2)c1CN1CCCCC1 |  |  | 706 nM | 3 nM |  |  | 51% |  | 35 nM | 
41 | Cn1cc(-c2ccc3cnc(NC(=O)c4ccnc(OC5CNC5)c4)cc3c2)cn1 |  |  |  |  |  |  | 100% |  | 154 nM | 
42 | c1cc(-c2ccnc3[nH]c(-c4n[nH]c5ccc(-c6cncc(CNCC7CCCC7)c6)nc45)cc23)ccn1 | > 10000 nM |  | > 10000 nM | 40 nM | 100 nM | 67.2% |  |  |  | 
43 | Fc1ccc(-c2cncc3[nH]c(-c4n[nH]c5cnc(-c6cncc(CN7CCCC7)c6)cc45)nc23)s1 |  |  | 470 nM | 8 nM |  |  | 81% |  | 3000 nM | 
44 | CCCC(=O)Nc1cncc(-c2ccc3[nH]nc(-c4nc5c(N6CCCCC6)cncc5[nH]4)c3c2)c1 |  |  | 42 nM | 14 nM |  |  | 39% | 77.3% | 20.5 nM | 
45 | CN(C)C1CN(c2ncc(C(=O)Nc3cc4cc(-c5cnn(C)c5)ccc4cn3)s2)C1 |  |  | 1320 nM |  |  |  | 0% |  | 71.4 nM | 
46 | O=C(Nc1cc2cc(-c3cncc(CN4CCC(O)CC4)c3)ccc2cn1)c1ccc(F)cc1 |  |  | 382 nM |  |  |  | 3.7% |  | 2.9 nM | 

Source: ChEMBL document CHEMBL4739717, “Methods of treating cartilage disorders through inhibition of clk and dyrk” (2020)
